In PMC12406196, “Anticoronavirus Activity of Uridine Glycoconjugates Containing a 1,2,3-Triazole Moiety” (Journal of Medicinal Chemistry, 2025):

Test system: SARS-CoV-2 S protein (S2 domain)
Type: cell-based
Settings: Western blot with S2-specific antibodies

Compound: CC(=O)OC[C@H]1O[C@@H](OCc2cn(C[C@H]3O[C@@H](n4ccc(=O)[nH]c4=O)[C@H](O[Si](C)(C)C(C)(C)C)[C@@H]3O[Si](C)(C)C(C)(C)C)nn2)[C@H](OC(C)=O)[C@@H](OC(C)=O)[C@H]1OC(C)=O [Compound 15, 2′,3′-di-O-tert-Butyldimethylsilyl-5′-deoxy-5′-[4-(2″,3″,4″,6″-tetra-O-acetyl-β-D-galactopyranosyloxymethyl)-1,2-3-triazol-1-yl]-uridine]
- S2 domain levels in the medium of SC-VLP-producing cells: minor alterations

Compound: CC(=O)OC[C@H]1O[C@@H](SCc2cn(C[C@H]3O[C@@H](n4ccc(=O)[nH]c4=O)[C@H](O[Si](C)(C)C(C)(C)C)[C@@H]3O[Si](C)(C)C(C)(C)C)nn2)[C@H](OC(C)=O)[C@@H](OC(C)=O)[C@@H]1OC(C)=O [Compound 20, 2′,3′-di-O-tert-Butyldimethylsilyl-5′-deoxy-5′-[4-(2″,3″,4″,6″-tetra-O-acetyl-β-D-glucopyranosylthiomethyl)-1,2-3-triazol-1-yl]-uridine]
- S2 domain levels in the medium of SC-VLP-producing cells: minor alterations

Compound: CC(=O)OC[C@H]1O[C@@H](SCc2cn(C[C@H]3O[C@@H](n4ccc(=O)[nH]c4=O)[C@H](O[Si](C)(C)C(C)(C)C)[C@@H]3O[Si](C)(C)C(C)(C)C)nn2)[C@H](OC(C)=O)[C@@H](OC(C)=O)[C@H]1OC(C)=O [Compound 21, 2′,3′-di-O-tert-Butyldimethylsilyl-5′-deoxy-5′-[4-(2″,3″,4″,6″-tetra-O-acetyl-β-D-galactopyranosylthiomethyl)-1,2-3-triazol-1-yl]-uridine]
- S2 domain levels in the medium of SC-VLP-producing cells: more pronounced reduction

Compound: CC(=O)OC[C@H]1O[C@@H](SCn2cc(COC[C@H]3O[C@@H](n4ccc(=O)[nH]c4=O)[C@H](O[Si](C)(C)C(C)(C)C)[C@@H]3O[Si](C)(C)C(C)(C)C)nn2)[C@H](OC(C)=O)[C@@H](OC(C)=O)[C@@H]1OC(C)=O [Compound 24, 2′,3′-di-O-tert-Butyldimethylsilyl-5′-O-[(1-(2″,3″,4″,6″-tetra-O-acetyl-β-D-glucopyranosylthiomethyl)-1,2-3-triazol-4-yl)-methyl]-uridine]
- S2 domain levels in the medium of SC-VLP-producing cells: minor alterations
